Assay results reported in US20220274947A1, “NOVEL HETEROARYL-TRIAZOLE COMPOUNDS AS PESTICIDES” (Bayer Aktiengesellschaft, priority 2019, published 2022).

Tests used:
Type in all cases: in vivo
Ctenocephalides felis = Ctenocephalides felis oral test (CTECFE Oral); conditions: 48 h, read-out: activity (mortality)
Summary of the method: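 Percent mortality was recorded 2 days after roughly 20 adult Ctenocephalides felis fed on treated cattle blood. The blood was warmed to 37 °C beneath a parafilm membrane, with the fleas kept at room temperature. Compound was dissolved in DMSO and diluted into the blood to test concentration.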

[1] = system: Musca domestica strain WHO—N; experiment: Musca domestica test (MUSCDO surface treatment & contact assay); conditions: exposure 30 minutes, 24 hours after contact, read-out: efficacy (mortality); for mortality at 4 mg/m2: surface concentration 4 mg/m^2, glazed tile; for mortality at 20 mg/m2: surface concentration 20 mg/m^2, glazed tile
Summary of the method: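 Compound dissolved in acetone (2 mg/ml) with 2000 ppm rapeseed oil methyl ester and pipetted onto glazed tile; after acetone evaporation, adult flies exposed to dried surface for 30 minutes. Mortality (%) scored 24 hours after contact.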

Myzus persicae [2] = experiment: Myzus persicae oral test; conditions: 120 h, read-out: activity (mortality)
Summary of the method: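 Percent mortality was recorded at day 5, where 0% means no aphids killed. Compound prepared from an acetone concentrate diluted in water and combined with IPL41 medium containing sugar was offered to mixed-stage green peach aphids, which sucked it through a parafilm seal.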

[3] = system: Anopheles funestus strain FUMOZ-R; experiment: Anopheles funestus test (ANPHFU surface treatment & contact assay); conditions: exposure 30 minutes, 24 hours after contact, read-out: efficacy (mortality); for mortality at 4 mg/m2: surface concentration 4 mg/m^2, glazed tile; for mortality at 20 mg/m2: surface concentration 20 mg/m^2, glazed tile
Summary of the method: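 Adult FUMOZ-R mosquitoes were exposed 30 min to glazed tiles treated with compound in acetone plus 2000 ppm rapeseed oil methyl ester, after solvent evaporation. Percent mortality was scored 24 h after contact.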

Rhipicephalus microplus = experiment: Rhipicephalus (Boophilus) microplus dip test (BOOPMI Dip); conditions: 168 h, application rate 100 ppm, engorged adult female ticks, after 7 days, read-out: activity (efficacy: 100% means all eggs are infertile)
Procedure: Rhipicephalus (Boophilus) Microplus—Dip Test (BOOPMI Dip)
Test Animal: cattle ticks (Rhipicephalus microplus) strain parkhurst, SP-resistant Solvent: dimethyl sulfoxide
To produce a suitable preparation of active compound, 10 mg of active compound are dissolved in 0.5 mL solvent, and the concentrate is diluted with water to the desired concentration.
This compound solution is pipetted into tubes. 8-10 engorged, adult, female cattle ticks (Rhipicephalus microplus) are placed in perforated tubes. These tubes are immersed in the aqueous compound solution until the ticks are completely moistened. After the liquid has drained off, the ticks are transferred to a filter paper in a plastic tray and stored in a climate chamber.
After 7 days egg deposition of fertile eggs is monitored. Eggs where fertility is not visible are stored in a climate chamber till hatching after about 42 days. An efficacy of 100% means all eggs are infertile; 0% means all eggs are fertile.

Myzus persicae [4] = experiment: Myzus persicae spray test; conditions: in Brassica rapa, foliar, 120 h; for mortality at 100 g/ha: read-out: activity (mortality), application rate 100 g/ha, spray, Chinese cabbage leaf disks, after 5 days; for mortality at 500 g/ha: read-out: activity (mortality), application rate 500 g/ha, spray, Chinese cabbage leaf disks, after 5 days
Summary of the method: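 Aphid mortality in % was assessed 5 days after spraying; leaf disks of Brassica pekinensis carrying mixed-instar green peach aphids were treated. Spray preparation: active compound in acetone plus dimethylformamide, diluted with emulsifier-containing water (1000 ppm).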

Rhipicephalus sanguineus = Rhipicephalus sanguineus in-vitro contact test, adult brown dog ticks (RHIPSA Cont); conditions: 48 h, after 48 hours, read-out: activity (efficacy: 100% means all ticks are dead or moribund); for pest or weed control at 1 µg/cm2, 100 g/ha: application rate 1 μg/cm^2 (=100 g/ha); for pest or weed control at 5 µg/cm2, 500 g/ha: application rate 5 μg/cm^2 (=500 g/ha)
Summary of the method: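 Compound in acetone (9 mg/mL stock, diluted to test concentration) is coated onto inner walls of glass tubes by rotation for 2 h at 30 rpm. Efficacy is read after 48 h: ticks are tapped down and held on a 45-50° C plate for at most 5 min, and immotile or uncoordinated ones that fail to climb away count as dead or moribund.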

Nezara viridula = Nezara viridula spray test; conditions: in Hordeum vulgare, 96 h, barley plants, larvae, after 4 days; for mortality at 100 g/ha: application rate 100 g/ha; for mortality at 500 g/ha: application rate 500 g/ha
Summary of the method: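 Mortality was read at day 4 (0% = no kill, 100% = total kill) after spraying larva-infested barley plants. Test solutions were made from an acetone/DMF concentrate diluted with water holding 1000 ppm alkylarylpolyglycol ether emulsifier.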

SMILES	mortality at 100 ppm (Ctenocephalides felis)	mortality at 4 mg/m2 [1]	mortality at 20 mg/m2 [1]	mortality at 0.8 ppm (Myzus persicae [2])	mortality at 4 ppm (Myzus persicae [2])	mortality at 4 mg/m2 [3]	pest or weed control at 100 ppm (Rhipicephalus microplus)	mortality at 100 g/ha (Myzus persicae [4])	pest or weed control at 1 µg/cm2, 100 g/ha (Rhipicephalus sanguineus)	pest or weed control at 5 µg/cm2, 500 g/ha (Rhipicephalus sanguineus)	mortality at 100 g/ha (Nezara viridula)	mortality at 500 g/ha (Nezara viridula)	mortality at 20 mg/m2 [3]	mortality at 500 g/ha (Myzus persicae [4])
Cc1nc([C@H](C)NC(=O)c2cc(Cl)cc(Br)c2)n(-c2ccc(C#N)cn2)n1 [II-50]	100%	80 to 100%	80 to 100%	100%	100%	80 to 100%	100%	100%	100%	100%	–	–	–	–
Cc1nc([C@H](C)NC(=O)c2cncc(C(F)(F)F)c2)n(-c2ccc(C#N)cn2)n1 [II-63]	100%	–	80 to 100%	–	100%	–	100%	100%	100%	100%	100%	–	–	–
CCc1nc([C@H](C)NC(=O)c2cc(Cl)cc(Cl)c2)n(-c2ccc(C#N)cn2)n1 [I-2]	90%	80 to 100%	–	–	–	–	100%	–	–	100%	–	90%	–	–
Cc1nc([C@H](C)NC(=O)c2cc(Br)cc(OC(F)(F)F)c2)n(-c2ccc(C#N)cn2)n1 [II-47]	100%	80 to 100%	80 to 100%	100%	100%	–	80%	100%	100%	100%	100%	100%	80 to 100%	–
C[C@H](NC(=O)c1cc(OC(F)F)cc(OC(F)F)c1)c1ncnn1-c1ccc(C#N)cn1 [II-77]	100%	80 to 100%	80 to 100%	90%	100%	80 to 100%	–	90%	–	100%	100%	–	80 to 100%	–
C[C@H](NC(=O)c1cc(C(F)(F)F)cc(C(F)(F)F)c1)c1ncnn1-c1ccc(C(=O)N(C)C2CC2)cn1 [II-38, 6-(5-{(1S)-1-[3,5-bis(trifluoromethyl)benzamido]ethyl}-1H-1,2,4-triazol-1-yl)-N-cyclopropyl-N-methylnicotinamide]	–	–	–	–	100%	–	80%	100%	100%	100%	100%	100%	80 to 100%	100%
Cc1nc([C@H](C)NC(=O)c2cc(C#N)cc(C(F)(F)F)c2)n(-c2ccc(C#N)cn2)n1 [II-53]	100%	80 to 100%	80 to 100%	100%	100%	–	100%	100%	80%	100%	90%	–	–	–
C[C@H](NC(=O)c1cc(C(F)(F)F)cc(C(F)(F)F)c1)c1ncnn1-c1ccc(C(=O)N(C)CC2CC2)cn1 [II-73]	–	–	–	–	100%	–	100%	100%	100%	100%	100%	100%	–	100%
C[C@H](NC(=O)c1cc(Cl)cc(C(F)(F)F)c1)c1ncnn1-c1cc(-n2cncn2)ccn1 [II-43]	–	–	80 to 100%	–	–	–	100%	–	100%	100%	–	–	80 to 100%	–
Cc1nc([C@H](C)NC(=O)c2cc(Br)cc(C#N)c2)n(-c2ccc(C#N)cn2)n1 [II-54]	90%	80 to 100%	80 to 100%	100%	100%	–	80%	90%	100%	100%	–	–	–	–
CCc1nc([C@H](C)NC(=O)c2cc(C(F)(F)F)cc(C(F)(F)F)c2)n(-c2ccc(C#N)cn2)n1 [I-1]	90%	–	80 to 100%	–	100%	–	100%	–	80%	100%	–	–	–	–
Cc1nc([C@H](C)NC(=O)c2cc(C(F)(F)F)cc(C(F)(F)F)c2)n(-c2ccc(C(=O)N(C)C3CC3)cn2)n1 [II-96]	100%	80 to 100%	80 to 100%	–	100%	–	100%	90%	100%	100%	–	–	–	–
C[C@H](NC(=O)c1cc(Cl)nc(C(F)(F)F)c1)c1ncnn1-c1ccc(C#N)cn1 [II-5]	90%	80 to 100%	80 to 100%	–	100%	80 to 100%	100%	–	100%	100%	90%	100%	80 to 100%	90%
CCN(C)C(=O)c1ccc(-n2nc(C)nc2[C@H](C)NC(=O)c2cc(C(F)(F)F)cc(C(F)(F)F)c2)nc1 [II-97]	100%	80 to 100%	80 to 100%	–	100%	–	100%	100%	100%	100%	100%	–	–	–
